In patent US11573241B2, “Total cellular iron as a marker of cancer stem cells and uses thereof” (Institut National de la Sante et de la Recherche Medicale …, priority 2016, dated 2023):

Tests used:
[1] = test system: iCSCL-10A2 cells; experiment: Annexin V/PI assay; format: cell-based; conditions: 0.5 μM, 72 h
Experimental: (§1) Annexin V/PI assay. Cells were treated as indicated. After treatment, cell death was quantified using Annexin V-FITC/Propidium Iodide (PI) assay according to the manufacturer's protocol (FITC Annexin V Apoptosis Detection Kit II, 556570, BD Pharmingen™) and analyzed by a LSRFortessa™ flow cytometer (BD Bioscience, San Jose, Calif.). The data were processed using Cell Quest software (BD Biosciences).

[2] = test system: HMLER CD24^low cells; experiment: Localization of intracellular iron(II) with RhoNox-1; format: cell-based, human; conditions: 0.5 μM, 48 h; for lysotracker-positive vesicles colocalized with the RhoNox-1 probe: fixed cells
Experimental: Localization of intracellular iron(II). RhoNox-1 was synthesized according to the original procedure described in […]. Cells were washed with 1× Hank's Balanced Salt Solution (HBSS, 14025-092, Life technologies) three times, then incubated with 5 μM of RhoNox-1/HBSS for 1 h at 37° C., 5% CO2 and washed with HBSS. Co-staining was performed by adding 100 nM LysoTracker Deep Red and Hoechst 33342 (H1399, Sigma, final concentration of 1 μg/mL) in HBSS. Experiments were performed with a 60×APO TIRF oil immersion objective of Nipkow Spinning Disk confocal system.

[3] = test system: non-CSC (HMLER CD24^high ID2) cells; experiment: Immunoblotting of iron homeostasis regulatory proteins; format: cell-based, human
Experimental: (§2) Immunoblotting. Cells were treated as indicated, then washed twice with PBS and lysed with 2× Laemmli buffer. Cell extracts were heated at 95° C. for 5 min, sheared through a 26-gauge needle and quantified with a Nanodrop 2000 (Thermo Scientific). Protein lysates (˜100 μg) were resolved by SDS-PAGE electrophoresis and transferred onto PVDF membranes (Amersham). Membranes were blocked with 5% BSA, 0.1% Tween-20/TBS for 1 h. The blots were then probed with the relevant primary antibodies in 5% BSA, 0.1% Tween-20/TBS at 4° C. overnight with gentle agitation. Membranes were washed with 0.1% Tween-20/TBS for 30 min and were incubated with secondary antibodies for 1 h at RT. Antigens were detected by ECL (Amersham). Imaging was performed using a ChemiDoc™ XRS+ System (Biorad).

[4] = test system: HMLER CD24^low cells; experiment: Annexin V/PI assay; format: cell-based, human; conditions: 0.5 μM, 72 h
Experimental: as §1

[5] = test system: iCSCA2 cells; experiment: Immunoblotting of iron homeostasis regulatory proteins; format: cell-based
Experimental: as §2

[6] = test system: U2OS, HMLER CD24^low, and iCSCL-10A2 cells; experiment: Lysosomal ROS in cells; format: cell-based; conditions: all cell lines
[7] = test system: HMLER CD24^low and iCSCL-10A2 cells; experiment: Lipid ROS measurements (Bodipy-C11); format: cell-based; conditions: 0.5 μM, 48 h
Experimental: Lipid ROS measurements. Cells were treated with Sal or AM5 (0.5 μM) as indicated. Then, cells were trypsinized and washed with PBS. Subsequently, cells were incubated with Bodipy-C11® (D3861, Thermo Fisher Scientific, 2 μM) at 37° C. for 60 min. Next, cells were washed twice with PBS. […] The data were processed using Cell Quest software (BD Biosciences) and FlowJo software (FLOWJO, LLC). For cell imaging, cells were treated as indicated in the main figure (Bodipy-C11®, 1 μM, 1 h), then fixed with formaldehyde (2% in PBS, 12 min) and analyzed by fluorescence microscopy (ex. 488 nm).

[8] = test system: HMLER CD24^low cells; experiment: Immunoblotting of iron homeostasis regulatory proteins; format: cell-based, human; conditions: for level of autophagy marker protein LC3-II: 24 h; for levels of IRP2, TfR and ferritin: immunoblotting
[9] = test system: patient-derived xenografts (PDX 1 and 2); format: in vivo, NOD/SCID mice; conditions: intra-peritoneal; for ratio of residual ALDH+ cells / tumor growth: 4 weeks
From the text: Patient derived xenografts (PDXs). PDXs were established as previously described in Charafe-Jauffret et al., Cancer Res. 73, 7290-7300 (2013) from tissue samples collected prospectively at the Institut Paoli-Calmettes (IPC). Samples of human origin and associated data were obtained from the IPC/CRCM Tumor Bank that operates under authorization #AC-2007-33 granted by the French Ministry of Higher Education and Research. Before scientific use of samples and data, patients were appropriately informed and asked to consent in writing, in compliance with French and European regulations. The project was approved by the IPC Institutional Review Board. Cells from 2 different patient-derived xenografts (PDX 1 and 2) were transplanted orthotopically into fat pads of 4-week-old female non-obese diabetic/severe combined immunodeficient (NOD/SCID) mice (NOD.CB17-Prkdcscid/J, Charles River France) after mechanical treatment and enzymatic digestion using collagenase/hyaluronidase (StemCell Technologies) to generate single-cell suspension suitable for implantation in vivo. PDXs were primarily established as previously described in Caraft-Jauffret et al., and evaluated for ALDEFLUOR-positive CSCs. We injected single cancer cells into fat pads of NOD/SCID mice and monitored tumor growth. When tumor size reached approximately 150 mm^3, Sal and AM5 treatments were performed as indicated above for FIGS. 14 and 15. Tumor growth was compared with that of docetaxel and placebo-treated controls. After 4 weeks of treatment, the animals were sacrificed and the proportion of ALDEFLUOR-positive CSCs was measured in each residual tumor. All animal studies were approved by the French Ministry of Higher Education and Research (authorization number D130554) and ethical committee (number 14), of Aix-Marseille Université. No randomization was used and experimenters were blinded to drug treatments and tissue analyses.
Aldefluor assay. The analysis was processed on single-cell suspension from the PDXs obtained as described above. The ALDEFLUOR Kit (Stemcell™ Technologies) was used to isolate the population with high aldehyde dehydrogenase enzymatic activity using an LSR2 cytometer (Becton Dickinson Biosciences), as previously described in Charafe-Jauffret et al. To eliminate cells of mouse origin from the PDXs, we used staining with an anti-H2Kd antibody (BD Biosciences, 1:200, 20 min on ice) followed by staining with a secondary antibody labeled with phycoerythrin (PE; Jackson Laboratories, 1:250, 20 min on ice).

Structure (SMILES)	form of cell death [1]	staining of iron(II) (subcellular localization) [2]	lysotracker-positive vesicles colocalized with the RhoNox-1 probe [2]	level of ferritin [3]	response of IRP2 and TfR levels [3]	form of cell death [4]	levels of IRP2, TfR and ferritin [5]	lysosomal ROS [6]	lipid ROS (Bodipy-C11 staining) [7]	level of autophagy marker protein LC3-II [8]	levels of IRP2, TfR and ferritin [8]	toxicity at effective doses [9]	ratio of residual ALDH+ cells [9]	tumor growth [9]
C#CCN[C@@H]1C=C[C@]2(O[C@H]([C@@H](CC)C(=O)[C@@H](C)[C@@H](O)[C@H](C)C3O[C@@H](C(CC)C(=O)O)CC[C@@H]3C)[C@@H](C)C[C@H]2C)O[C@@]12CC[C@@](C)([C@H]1CC[C@](O)(CC)[C@H](C)O1)O2 (stereo partly shown) [AM5, Sal-Propargylamine]	ferroptosis	restricted to the lysosomal compartment	approximately 80%	reduced the level of ferritin	did not observe a response characteristic of a cytosolic depletion of iron	ferroptosis	response characteristic of a cytosolic depletion of iron	significant increase in lysosomal ROS	presence of lipid peroxidation	increased	increased levels of iron-responsive element-binding protein 2 (IRP2) and transferrin receptor (TfR) along with reduced levels of ferritin	without detectable toxicity	reduced ratio of ALDH+ cells	reduce tumor growth
CC[C@@H](C(=O)[C@@H](C)[C@@H](O)[C@H](C)[C@@H]1O[C@@H]([C@@H](CC)C(=O)O)CC[C@@H]1C)[C@H]1O[C@]2(C=C[C@@H](O)[C@]3(CC[C@@](C)([C@H]4CC[C@](O)(CC)[C@H](C)O4)O3)O2)[C@H](C)C[C@@H]1C [Sal, salinomycin, reference compound]	ferroptosis	restricted to the lysosomal compartment	approximately 80%	reduced the level of ferritin	did not observe a response characteristic of a cytosolic depletion of iron	ferroptosis	response characteristic of a cytosolic depletion of iron	significant increase in lysosomal ROS	presence of lipid peroxidation	increased	increased levels of iron-responsive element-binding protein 2 (IRP2) and transferrin receptor (TfR) along with reduced levels of ferritin	without detectable toxicity	reduced ratio of ALDH+ cells	reduce tumor growth
